system: dermal Arthus reaction; assay: reverse passive Arthus reaction test (Type III hypersensitivity), reduction of dermal lesion; type: in vivo, Male Sprague-Dawley rats; conditions: 100 mg/kg oral, 30 min before intradermal Anti-B.S.A.; lesion measured four hours later; 4 rats per group
Protocol: Proc. 35, 774 (1976). Each compound was administered orally to a group of four animals.
The […] passive Arthus reaction test in rats is conducted as follows: Male Sprague-Dawley rats weighing approximately 130-160 g. are used, 4 rats per group. All animals are injected intravenously with 0.5 ml. 0.075% Bovine Serum Albumin (B.S.A.)+2% Evans Blue solution. Each rat then receives an oral dose of drug; one drug is administered per group.
Thirty minutes subsequent to drug dosing, each animal is injected intradermally with 0.05 ml. 1.44% Anti-B.S.A. into the dorsal skin. Four hours later the animals are sacrificed, the dorsal skin reflexed, and the lesion excised. Two perpendicular diameters of each lesion are measured. The average diameters of the lesions from the treated groups are compared with the average diameters from the control group to determine any drug effect.

N#CCCN(N)c1nc2ccccc2s1 [3-[1-(2-benzthiazolyl)hydrazino]propanenitrile] was tested, and the “% Inhibition of lesion of dermal Arthus reaction” value was 59%.

In the case of CCCCC1C(=O)N(c2ccccc2)N(c2ccccc2)C1=O [Phenylbutazone, reference compound], the “% Inhibition of lesion of dermal Arthus reaction” value is reported as “inactive”.

same assay, conditions: Rattus norvegicus, 4 h; 100 mg/kg oral, 30 min before intradermal Anti-B.S.A.; lesion measured four hours later; 4 rats per group

Going from N#CCCN(N)c1nc2ccccc2o1 [3-[1-(2-Benzoxazolyl)hydrazino]propanenitrile] to CC(C#N)CN(N)c1nc2ccccc2o1 (stereo not shown) [3-[1-(2-benzoxazolyl)hydrazino]-2-methylpropanenitrile], the inhibition in vivo at 100 mg/kg falls from 68% to 45%.

Compared with CC(CC#N)N(N)c1nc2ccccc2o1 (stereo not shown) [3-[1-(2-benzoxazolyl)hydrazino]-3-methylpropanenitrile], Cc1ccc2oc(N(N)CCC#N)nc2c1 [3-[1-(5-methyl-2-benzoxazolyl)hydrazino]propanenitrile] is higher in inhibition in vivo at 100 mg/kg: 48% for the first, 70% for the second.

First: Cc1cc2oc(N(N)CCC#N)nc2c(C)c1C [3-[1-(4,5,6-Trimethyl-2-benzoxazolyl)hydrazino]propanenitrile]
Second: Cc1cc(C)c2oc(N(N)CCC#N)nc2c1C [3-[1-(4,5,7-Trimethyl-2-benzoxazolyl)hydrazino]propanenitrile]
The inhibition in vivo at 100 mg/kg of the first is higher: 59% for the first, 55% for the second.

Going from Cc1cc(C)c2oc(N(N)CCC#N)nc2c1 [3-[1-(5,7-dimethyl-2-benzoxazolyl)hydrazino]propanenitrile] to Cc1cccc2nc(N(N)CCC#N)oc12 [3-[1-(7-methyl-2-benzoxazolyl)hydrazino]propanenitrile], the inhibition in vivo at 100 mg/kg falls from 59% to 47%.

Going from N#CCCN(N)c1nc2cc(C#N)ccc2o1 [3-[1-(5-cyano-2-benzoxazolyl)hydrazino]propanenitrile] to N#CCCN(N)c1nc2cc(F)ccc2o1 [3-[1-(5-fluoro-2-benzoxazolyl)hydrazino]propanenitrile], the inhibition in vivo at 100 mg/kg falls from 66% to 55%.

Going from N#CCCN(N)c1nc2cc(CS)ccc2o1 [3-[1-(5-mercaptomethyl-2-benzoxazolyl)hydrazino]propanenitrile] to COc1ccc2oc(N(N)CCC#N)nc2c1 [3-[1-(5-methoxy-2-benzoxazolyl)hydrazino]propanenitrile], the inhibition in vivo at 100 mg/kg rises from 40% to 67%.

Compared with N#CCCN(N)c1nc2cc(C(F)(F)F)ccc2o1 [3-[1-(5-trifluoromethyl-2-benzoxazolyl)hydrazino]propanenitrile], Cc1ccc2nc(N(N)CCC#N)oc2c1 [3-[1-(6-methyl-2-benzoxazolyl)hydrazino]propanenitrile] is higher in inhibition in vivo at 100 mg/kg: 48% for the first, 58% for the second.

Going from Cc1cc2oc(N(N)CCC#N)nc2cc1Cl [3-[1-(6-methyl-5-chloro-2-benzoxazolyl)hydrazino]propanenitrile] to N#CCCN(N)c1nc2cccc(Cl)c2o1 [3-[1-(7-Chloro-2-benzoxazolyl)hydrazino]propanenitrile], the inhibition in vivo at 100 mg/kg falls from 76% to 48%.

system: carrageenin pleurisy; assay: modified carrageenin pleurisy assay (reduction in accumulation of exudate volume and leukocytes); type: in vivo; conditions: Dose 100 (unit not given)
From the text: The anti-inflammatory activity of these compounds was established by using a modification of the carrageenin pleurisy assay described in Vinegar et al. Proc. Soc. Exp. Biol. Med. 143:711 (1973).

First: N#CCCN(N)c1nc2ccccc2o1 [3-[1-(2-Benzoxazolyl)hydrazino]propanenitrile]
Second: CCCCC1C(=O)N(c2ccccc2)N(c2ccccc2)C1=O [Phenylbutazone, reference compound]
The “% Inhibition Cells (leukocyte accumulation)” value of the first is higher: 39% for the first, 13% for the second.

First: N#CCCN(N)c1nc2ccccc2o1 [3-[1-(2-Benzoxazolyl)hydrazino]propanenitrile]
Second: CCCCC1C(=O)N(c2ccccc2)N(c2ccccc2)C1=O [Phenylbutazone, reference compound]
The “% Inhibition Volume exudates” value of the first is higher: 61% for the first, 59% for the second.

From patent US4476137A, “[1-(2-Benzoxazolyl)hydrazino]alkyl nitrile derivatives” (Abbott Laboratories, priority 1983, dated 1984)
